Test results as given in patent publication US4740499A, “Method of enhancing the bioactivity of atrial peptides” (Monsanto Company, priority 1986, dated 1988).

Tested on: rabbit kidney brush border membranes (RBBM)
Test: physchem
Type: biochemical
Settings: 20 μg RBBM, 100 nM inhibitor, 60 min, 25° C.
Method: The kelatorphan was prepared according to the method described for compound 13 by Fournie-Saluski et al., J. Med. Chem. 28, 1158-1169 (1985). The following procedure was performed at 4° C. Rabbit kidneys were obtained fresh and were perfused with buffer A (containing 5 mM Tris, pH 7.5, 0.25 M sucrose, 3 mM MgCl2 and 1 mM EDTA) to remove the blood. (EDTA=ethylenediaminetetraacetic acid.) The kidneys were minced, homogenized in 5 volumes of ice-cold buffer A with a Brinkmann Polytron homogenizer and filtered through two layers of cheesecloth. The filtrate was centrifuged at 5,000×g for 20 min, the pellet was discarded and the supernatant was centrifuged at 15,000×g for 20 min. The supernatant was retained and then centrifuged at 100,000×g for 90 min. The pellet was resuspended in 50 mM Tris, pH 7.5, and the suspension was centrifuged at 100,000×g for 90 min. The washed pellet was resuspended in 50 mM Tris, pH 7.5, to give a final protein concentration of 4 mg/ml using the protein assay of Bradford, Anal. Biochem. 72, 248-254 (1976). The membrane preparation was assayed for aminopeptidase and alkaline phosphatase activities which are the marker enzymes for the kidney brush border. See Inui et al., Biochim. Biophys. Acta 647, 150-154 (1981). The final membrane preparation was enriched 8-fold in alkaline phosphatase activity, and 11-fold in aminopeptidase activity, compared to the homogenate. Renal brush border membranes (10-20 μg) were preincubated for 15 min at 25° C. in a solution containing the inhibitor and 50 mM Tris, pH 7.5. […] Incubations were for 60 min at 25° C. and were terminated by removing the membranes by filtration using Gelman GA-6 filters. The filtrates were immediately frozen on dry ice and were stable for 1 week when stored at -80° C. Samples containing the peptide degradation products were resolved by C18 reversed phase high pressure liquid chromatography (HPLC). The frozen samples were thawed immediately before injection onto a Vydac C18 column (4.6 mm I.D.×25 cm; 5 micron/300 Å) equilibrated with water containing 0.05% trifluoracetic acid (TFA). Peptide fragments and starting material were separated on a linear gradient of 0-35% acetonitrile also containing 0.05% TFA. Both the gradient and the flow rate (1 ml/min) were maintained by a Waters HPLC system consisting of two Model 510 pumps connected to an Automated Gradient Controller. Column effluent was monitored at 220 nm by a Waters Model 481 spectrophotometer, and the amount of atrial peptide material and peptide fragments were measured via a Hewlett-Packard Model […] integrator. […] Therefore, in those cases where the N-terminal serine was removed, the total amount of biologically active material remaining at the end of the incubation was taken as the % starting material remaining plus % des […] -AP-I or des […] -AP-III (as appropriate), as calculated from the peak areas of the individual peptides on HPLC.

O=C(O)CNC(=O)C(CS)Cc1ccccc1 (racemic) [thiorphan, N-(DL-2-benzyl-3-mercapto-propionyl)glycine]
Peak area as % Initial AP: AP ((c) 40 μM AP-I): 27.3%
Peak area as % Initial AP: AP + des Ser^1 -AP ((c) 40 μM AP-I): 87.9%
Peak area as % Initial AP: des Ser^1 -AP ((c) 40 μM AP-I): 60.6%
Peak area as % Initial AP: AP ((c) 40 μM AP-III): 38.1%
Peak area as % Initial AP: AP + des Ser^1 -AP ((c) 40 μM AP-III): 86.1%
Peak area as % Initial AP: des Ser^1 -AP ((c) 40 μM AP-III): 48.0%
Peak area as % Initial AP: AP ((c) 40 μM SLRR(Met^8)AP-III): 86.5%
Peak area as % Initial AP: AP + des Ser^1 -AP ((c) 40 μM SLRR(Met^8)AP-III): 86.5%
Peak area as % Initial AP: des Ser^1 -AP ((c) 40 μM SLRR(Met^8)AP-III): 0%
